Experimental data reported in PubChem BioAssay AID2060495 (Molecular Pharmacology Branch, DTP, NCI, 2025).

System: 521955-158-R2-J5-PDC complex spheroid viability
Assay: Anticancer human tumor 521955-158-R2-J5-PDC patient-derived pancreatic carcinoma cell line growth inhibition [GQUAD]
Details: for IC50: curve of first compound; for viability, T/C: stronger effect = lower value
How it was run: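 Tumor cells were grown as complex spheroids with HUVEC endothelial cells and mesenchymal stem cells as stroma. G-quadruplex stabilizers were combined with targeted agents over half-log dilutions from near the clinical Cmax, or from 10 microM.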

[1] = second compound 0.0316 µM, first compound 0.0316 µM
[2] = second compound 0.0316 µM, first compound 0.1 µM
[3] = second compound 0.0316 µM, first compound 0.316 µM
[4] = second compound 0.0316 µM, first compound 1 µM
[5] = second compound 0.0316 µM, first compound 3.16 µM
[6] = second compound 0.0316 µM, first compound 10 µM
[7] = second compound 0.1 µM, first compound 0.0316 µM
[8] = second compound 0.1 µM, first compound 0.1 µM
[9] = second compound 0.1 µM, first compound 0.316 µM
[10] = second compound 0.1 µM, first compound 1 µM
[11] = second compound 0.1 µM, first compound 3.16 µM
[12] = second compound 0.1 µM, first compound 10 µM
[13] = second compound 0.316 µM, first compound 0.0316 µM
[14] = second compound 0.316 µM, first compound 0.1 µM
[15] = second compound 0.316 µM, first compound 0.316 µM
[16] = second compound 0.316 µM, first compound 1 µM
[17] = second compound 0.316 µM, first compound 3.16 µM
[18] = second compound 0.316 µM, first compound 10 µM
[19] = second compound 1 µM, first compound 0.0316 µM
[20] = second compound 1 µM, first compound 0.1 µM
[21] = second compound 1 µM, first compound 0.316 µM
[22] = second compound 1 µM, first compound 1 µM
[23] = second compound 1 µM, first compound 3.16 µM
[24] = second compound 1 µM, first compound 10 µM
[25] = second compound 3.16 µM, first compound 0.0316 µM
[26] = second compound 3.16 µM, first compound 0.1 µM
[27] = second compound 3.16 µM, first compound 0.316 µM
[28] = second compound 3.16 µM, first compound 1 µM
[29] = second compound 3.16 µM, first compound 3.16 µM
[30] = second compound 3.16 µM, first compound 10 µM
[31] = second compound 10 µM, first compound 0.0316 µM
[32] = second compound 10 µM, first compound 0.1 µM
[33] = second compound 10 µM, first compound 0.316 µM
[34] = second compound 10 µM, first compound 1 µM
[35] = second compound 10 µM, first compound 3.16 µM
[36] = second compound 10 µM, first compound 10 µM
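Note: spheroids exposed to agents for one week before reading.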
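Throughout, for viability, T/C: 100% = DMSO vehicle control viability.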

SMILES: CC(C)n1c(=O)n(C)c2cnc3cc(F)c(-c4ccc(OCCCN5CCCCC5)nc4)cc3c21 + Cc1[nH]c2ccc(F)cc2c1-c1nc2c3cccnc3c3ncccc3c2[nH]1
- IC50 (second compound 0.0316 µM): > 10000 nM
- IC50 (second compound 0.1 µM): > 10000 nM
- IC50 (second compound 0.316 µM): > 10000 nM
- IC50 (second compound 1 µM): > 10000 nM
- IC50 (second compound 3.16 µM): > 10000 nM
- IC50 (second compound 10 µM): > 10000 nM
- viability, T/C [1]: 116%
- viability, T/C [2]: 90.8%
- viability, T/C [3]: 109%
- viability, T/C [4]: 84.5%
- viability, T/C [5]: 101%
- viability, T/C [6]: 94.4%
- viability, T/C [7]: 94.8%
- viability, T/C [8]: 114%
- viability, T/C [9]: 97.7%
- viability, T/C [10]: 105%
- viability, T/C [11]: 115%
- viability, T/C [12]: 84.8%
- viability, T/C [13]: 105%
- viability, T/C [14]: 108%
- viability, T/C [15]: 116%
- viability, T/C [16]: 104%
- viability, T/C [17]: 90.8%
- viability, T/C [18]: 83.7%
- viability, T/C [19]: 101%
- viability, T/C [20]: 113%
- viability, T/C [21]: 104%
- viability, T/C [22]: 94.9%
- viability, T/C [23]: 108%
- viability, T/C [24]: 91.1%
- viability, T/C [25]: 107%
- viability, T/C [26]: 110%
- viability, T/C [27]: 109%
- viability, T/C [28]: 102%
- viability, T/C [29]: 115%
- viability, T/C [30]: 94.2%
- viability, T/C [31]: 114%
- viability, T/C [32]: 92.8%
- viability, T/C [33]: 115%
- viability, T/C [34]: 110%
- viability, T/C [35]: 108%
- viability, T/C [36]: 79.1%

SMILES: COc1ncnc(C2CC2)c1-c1ncc2cnn(Cc3ccc(-c4nc(C(F)(F)F)cn4C(C)C)cc3)c2n1 + Cc1cnc(CNC(=O)c2c(=O)c3ccc(N4CCCN(C)CC4)nc3n3c2sc2ccccc23)cn1
- IC50 (second compound 0.0316 µM): > 10000 nM
- IC50 (second compound 0.1 µM): > 10000 nM
- IC50 (second compound 0.316 µM): < 31.6 nM
- IC50 (second compound 1 µM): < 31.6 nM
- IC50 (second compound 3.16 µM): < 31.6 nM
- IC50 (second compound 10 µM): < 31.6 nM
- viability, T/C [1]: 92.4%
- viability, T/C [2]: 73.3%
- viability, T/C [3]: 96.7%
- viability, T/C [4]: 71.9%
- viability, T/C [5]: 94.3%
- viability, T/C [6]: 85.5%
- viability, T/C [7]: 58%
- viability, T/C [8]: 58.6%
- viability, T/C [9]: 53.1%
- viability, T/C [10]: 55.9%
- viability, T/C [11]: 57.2%
- viability, T/C [12]: 55.2%
- viability, T/C [13]: 30.3%
- viability, T/C [14]: 31.6%
- viability, T/C [15]: 31.4%
- viability, T/C [16]: 31.5%
- viability, T/C [17]: 28.1%
- viability, T/C [18]: 25.6%
- viability, T/C [19]: 19.3%
- viability, T/C [20]: 17.7%
- viability, T/C [21]: 17%
- viability, T/C [22]: 17.4%
- viability, T/C [23]: 18.8%
- viability, T/C [24]: 16.6%
- viability, T/C [25]: 14.5%
- viability, T/C [26]: 14.3%
- viability, T/C [27]: 16.4%
- viability, T/C [28]: 13.2%
- viability, T/C [29]: 13.7%
- viability, T/C [30]: 12.8%
- viability, T/C [31]: 13%
- viability, T/C [32]: 11.2%
- viability, T/C [33]: 9.95%
- viability, T/C [34]: 13.9%
- viability, T/C [35]: 6.73%
- viability, T/C [36]: 6.37%

SMILES: CC1COCCN1c1cc(-c2ccnn2C)c2ccnc(-c3ccn[nH]3)c2n1 (stereo not drawn) + Cc1[nH]c2ccc(F)cc2c1-c1nc2c3cccnc3c3ncccc3c2[nH]1
- IC50 (second compound 0.0316 µM): 55.1 nM
- IC50 (second compound 0.1 µM): 52.6 nM
- IC50 (second compound 0.316 µM): 56.8 nM
- IC50 (second compound 1 µM): 59 nM
- IC50 (second compound 3.16 µM): 58.4 nM
- IC50 (second compound 10 µM): 53.5 nM
- viability, T/C [1]: 81%
- viability, T/C [2]: 16.8%
- viability, T/C [3]: 10.3%
- viability, T/C [4]: 13.1%
- viability, T/C [5]: 18.4%
- viability, T/C [6]: 18.2%
- viability, T/C [7]: 73.7%
- viability, T/C [8]: 20.6%
- viability, T/C [9]: 8.98%
- viability, T/C [10]: 12.4%
- viability, T/C [11]: 18.1%
- viability, T/C [12]: 18.8%
- viability, T/C [13]: 84.4%
- viability, T/C [14]: 16.7%
- viability, T/C [15]: 13.3%
- viability, T/C [16]: 12.7%
- viability, T/C [17]: 18.5%
- viability, T/C [18]: 19.8%
- viability, T/C [19]: 90.1%
- viability, T/C [20]: 16.1%
- viability, T/C [21]: 9.88%
- viability, T/C [22]: 11.1%
- viability, T/C [23]: 19.8%
- viability, T/C [24]: 21.6%
- viability, T/C [25]: 88.1%
- viability, T/C [26]: 15.8%
- viability, T/C [27]: 9.58%
- viability, T/C [28]: 11.2%
- viability, T/C [29]: 21.6%
- viability, T/C [30]: 25%
- viability, T/C [31]: 77.7%
- viability, T/C [32]: 16%
- viability, T/C [33]: 10.9%
- viability, T/C [34]: 15.9%
- viability, T/C [35]: 19.3%
- viability, T/C [36]: 24%

SMILES: Cc1[nH]c2ccccc2c1CCNCc1ccc(/C=C/C(=O)NO)cc1 + Cc1[nH]c2ccc(F)cc2c1-c1nc2c3cccnc3c3ncccc3c2[nH]1
- IC50 (second compound 0.0316 µM): 112 nM
- IC50 (second compound 0.1 µM): 156 nM
- IC50 (second compound 0.316 µM): 137 nM
- IC50 (second compound 1 µM): 224 nM
- IC50 (second compound 3.16 µM): 207 nM
- IC50 (second compound 10 µM): 157 nM
- viability, T/C (second compound 0.0316 µM, first compound 0.000999 µM): 116%
- viability, T/C (second compound 0.0316 µM, first compound 0.00316 µM): 120%
- viability, T/C (second compound 0.0316 µM, first compound 0.00999 µM): 132%
- viability, T/C [1]: 102%
- viability, T/C (second compound 0.0316 µM, first compound 0.0999 µM): 54.1%
- viability, T/C [3]: 23.1%
- viability, T/C (second compound 0.1 µM, first compound 0.000999 µM): 106%
- viability, T/C (second compound 0.1 µM, first compound 0.00316 µM): 109%
- viability, T/C (second compound 0.1 µM, first compound 0.00999 µM): 122%
- viability, T/C [7]: 116%
- viability, T/C (second compound 0.1 µM, first compound 0.0999 µM): 64.5%
- viability, T/C [9]: 27.3%
- viability, T/C (second compound 0.316 µM, first compound 0.000999 µM): 96.4%
- viability, T/C (second compound 0.316 µM, first compound 0.00316 µM): 108%
- viability, T/C (second compound 0.316 µM, first compound 0.00999 µM): 117%
- viability, T/C [13]: 114%
- viability, T/C (second compound 0.316 µM, first compound 0.0999 µM): 58.3%
- viability, T/C [15]: 27.8%
- viability, T/C (second compound 1 µM, first compound 0.000999 µM): 105%
- viability, T/C (second compound 1 µM, first compound 0.00316 µM): 123%
- viability, T/C (second compound 1 µM, first compound 0.00999 µM): 131%
- viability, T/C [19]: 106%
- viability, T/C (second compound 1 µM, first compound 0.0999 µM): 102%
- viability, T/C [21]: 27.9%
- viability, T/C (second compound 3.16 µM, first compound 0.000999 µM): 106%
- viability, T/C (second compound 3.16 µM, first compound 0.00316 µM): 110%
- viability, T/C (second compound 3.16 µM, first compound 0.00999 µM): 118%
- viability, T/C [25]: 109%
- viability, T/C (second compound 3.16 µM, first compound 0.0999 µM): 92%
- viability, T/C [27]: 25.6%
- viability, T/C (second compound 10 µM, first compound 0.000999 µM): 92.4%
- viability, T/C (second compound 10 µM, first compound 0.00316 µM): 105%
- viability, T/C (second compound 10 µM, first compound 0.00999 µM): 110%
- viability, T/C [31]: 115%
- viability, T/C (second compound 10 µM, first compound 0.0999 µM): 66.3%
- viability, T/C [33]: 24.7%
